We go through one molecule from patent US20240082196A1, “COMBINED USE OF UBENIMEX AND IMMUNE CHECKPOINT INHIBITOR” (NIPPON KAYAKU KABUSHIKI KAISHA, priority 2021, published 2024).

One series concerns Tregs. The experiment in a line: immunophenotyping of lymphocytes in peripheral blood by flow cytometry, B16-F0 model. Conditions: ubenimex alone. It is filed as in vivo, mouse. The method, then: The blood collected by the autopsies after the confirmation of the antitumor effects was analyzed for lymphocytes in peripheral blood by flow cytometry.
The peripheral blood was subjected to hemolysis treatment with a Lysing Buffer to prepare peripheral blood mononuclear cells (PBMCs), the Fc receptors were then blocked with the anti-mouse CD16/32 antibody, and the cell surface markers CD45, CD3, CD4, CD8, and CD25 were stained. The PBMCs were fixed and permeabilized, and the nuclear factor FOXP3 was stained, and measurement was performed with the flow cytometer LSRII (Becton, Dickinson and Company).
Tregs identified using CD45+, CD3+, CD4+, CD25+, and FOXP3+ were used as indices for evaluation. The existence rate of Tregs in CD45-positive cells was calculated, and the number of Tregs per 1 μL of the peripheral blood was calculated from the value of the total white blood cell count.
In general terms: In flow cytometry, cells or beads pass a laser one at a time.

Series [1] relates to mouse melanoma cells B16-F0. In words: antitumor effect in B16-F0 subcutaneous transplantation model. In kind it is in vivo. As to conditions: 15 days after transplantation. As for the experimental part:
The antitumor effect of the combined administration of ubenimex and the anti-mouse PD-1 antibody was evaluated with a model in which the mouse melanoma cells B16-F0 were subcutaneously transplanted. Fluctuation in cytokines and immune system markers was confirmed at the same time.
First, 2×10^5 B16-F0 were subcutaneously transplanted to female C57BL/6N mice (Charles River Laboratories Japan, Inc.) to produce a subcutaneous transplantation model.
Ubenimex was orally administered to subcutaneous transplantation model B16-F0 mice once a day, 14 times in total, in a dosage of 5 or 50 mg/kg from the day following the transplantation to 14 days after transplantation. Furthermore, an anti-mouse PD-1 antibody was intraperitoneally administered in a dosage of 200 μg/body 4, 7, 11, and 14 days after the transplantation. […]
The major axis and the minor axis of the tumors were measured with a digital micrometer caliper (Mitutoyo Corporation), and the tumor volumes (mm 3) were calculated by the expression “major axis×minor axis^2/2”. The relative tumor volume (T/C) of each treated group to the control group was calculated by the expression “average tumor volume of the test substance-treated group/average tumor volume of control group×100” using the tumor volume value 15 days after the transplantation. […]

A short description of series [2]: mouse blood concentration transition, single oral administration. In kind it is in vivo. As to conditions: for AUC(0-inf) / Cmax / MRT inf / Tmax: fasted female C57BL/6N mice, plasma. As for the experimental part: First, 9 nine-week-old fasted female C57BL/6N mice (Charles River Laboratories Japan, Inc.) in each group were subjected to the single oral administration of 5 mg/kg or 50 mg/kg of ubenimex. Blood collecting time points were 9 time points that were time points 5, 10, and 30 minutes, 1, 3, 6, 8, 12, and 24 hours after the administration. Then, 0.1 mL of blood was collected from the jugular vein under isoflurane anesthesia from 5 minutes to 6 hours after the administration, and the whole blood was collected from the vena cava under isoflurane anesthesia 8 hours or more after the administration. To secure n=3 at each time point, the blood collection was sparse blood collection in which blood was collected from one individual at 3 time points, and three animals were replaced as one set. Plasma was prepared from the obtained blood, and the plasma ubenimex concentration was measured with a liquid chromatography mass spectrometer (LC/MS/MS).

Series [3] concerns mouse colon adenocarcinoma cells MC38. In words: antitumor effect in MC38 subcutaneous transplantation model. As to conditions: 25 days after transplantation. In kind it is in vivo. The method, then:
The antitumor effect of the combined administration of ubenimex and the anti-mouse PD-1 antibody was evaluated with a subcutaneous transplantation model of the mouse colon adenocarcinoma cells MC38.
Then, 1×10^5 MC38 cells were subcutaneously transplanted into female C57BL/6N mice (Charles River Laboratories Japan, Inc.) to produce the subcutaneous transplantation model. Ubenimex was orally administered to each subcutaneous transplantation model mouse of MC38 in a dosage of 0.5 or 5 mg/kg once a day, 24 times in total, from the day following the transplantation to 24 days after the transplantation. Furthermore, the anti-mouse PD-1 antibody was intraperitoneally administered in a dosage of 50 μg/body 7, 11, 14, 18, 21, and 24 days after the transplantation. […]
The major axis and the minor axis of the tumors were measured with a digital micrometer caliper (Mitutoyo Corporation), and the tumor volumes (mm 3) were calculated by the expression “major axis×minor axis^2/2”. The relative tumor volume (T/C) of each treated group to the control group was calculated by the expression “average tumor volume of the test substance-treated group/average tumor volume of control group×100” using the tumor volume value 25 days after the transplantation. […]

The mark [4] stands for this setting: ubenimex 5 mg/kg oral once daily.

Take `CC(C)C[C@H](NC(=O)[C@@H](O)[C@H](N)Cc1ccccc1)C(=O)O` [ubenimex, (2S)-2-[(2S,3R)-3-amino-2-hydroxy-4-phenylbutanoylamino]-4-methylpentanoic acid]: the “numbers of Tregs in the peripheral blood” value in the series with Tregs is “no change”. The “relative average tumor volume (T/C) to the control group” value (“relative average tumor volume (T/C)” below) in series [1] (setting [4]) was “did not exhibit tumor growth inhibition effect”. For the same molecule, the “relative average tumor volume (T/C)” value in series [1] (ubenimex 50 mg/kg oral once daily) is “did not exhibit tumor growth inhibition effect”. In addition, the dosage proportionality entry in series [2] (dosage of 5 to 50 mg/kg in the mouse) is “dosage proportionality was generally obtained”. In series [2] (mouse, 5 mg/kg single oral), the AUC(0-inf) (commonly total exposure, with the tail of the curve extrapolated) turned out to be 3240 ng·h/mL; the Cmax (as a rule, the maximum level reached in the sampled fluid or tissue) was 4600 ng/mL; the MRT inf – broadly, the average time that molecules of a dose stay in the body – turned out to be 52.3 min; the Tmax – broadly, the time at which the peak concentration occurs – amounted to 4.98 min. Further, in series [2] (mouse, 50 mg/kg single oral), the AUC(0-inf) came to 47700 ng·h/mL, the Cmax turned out to be 44000 ng/mL, the MRT inf stood at 55.1 min and the Tmax amounted to 10.2 min. In series [2] (single oral, mouse), the “AUCinf, ratio of 50 mg/5 mg” value stood at 14.7 times; the “Cmax, ratio of 50 mg/5 mg” value is on record as 9.57 times; the “MRTinf, ratio of 50 mg/5 mg” value was 1.05 times. Also, in series [3] (ubenimex 0.5 mg/kg oral once daily), the “relative average tumor volume (T/C)” value was found to be 62%. In addition, the “relative average tumor volume (T/C)” value in series [3] (setting [4]) turned out to be 51%.
